Assay results published in ChEMBL document CHEMBL1201862, “PubChem BioAssay data set” (2004).
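Five compound concentrations were applied to cells in 96-well plates for 48 hours; endpoints were derived by simple linear interpolation of the resulting dose-response curve. The concentration for 50% growth inhibition is given as GI50.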 Activity calls are given as the source filed them. No stated cut-off is given here; in the data, active = GI50 up to about 1.1 µM and inactive = higher.

What was measured:
Experiment in all cases: NCI anticancer screen, dose series, 48 h
[1] = tested on: KM12
[2] = tested on: UACC-62
[3] = tested on: OVCAR-4
[4] = tested on: U-251
[5] = tested on: HL-60
[6] = tested on: COLO 205
[7] = tested on: SW-620
[8] = tested on: EKVX
[9] = tested on: RPMI-8226
[10] = tested on: ACHN
[11] = tested on: Malme-3M
[12] = tested on: A549
[13] = tested on: NCI-H23
[14] = tested on: CCRF-CEM
[15] = tested on: SF-539
[16] = tested on: HCT-116
[17] = tested on: MDA-MB-231
[18] = tested on: DU-145

Structure (SMILES)	GI50 [1]	GI50 [2]	GI50 [3]	GI50 [4]	GI50 [5]	GI50 [6]	GI50 [7]	GI50 [8]	GI50 [9]	GI50 [10]	GI50 [11]	GI50 [12]	GI50 [13]	GI50 [14]	GI50 [15]	GI50 [16]	GI50 [17]	GI50 [18]
CCOC(=O)C(=C=Cc1cccs1)C(=O)c1ccccc1	12.3 µM (inactive)	15.5 µM (inactive)	17 µM (inactive)	16.9 µM (inactive)	24.6 µM (inactive)	17.6 µM (inactive)	18 µM (inactive)	16.7 µM (inactive)	18.3 µM (inactive)	18.8 µM (inactive)	15.7 µM (inactive)	18.9 µM (inactive)	15.4 µM (inactive)	29.1 µM (inactive)	16.5 µM (inactive)	14.6 µM (inactive)	–	–
COc1ccc(Nc2nc3c(N)cc(C(F)(F)F)cc3nc2-c2ccccc2)cc1	83 µM (inactive)	> 100 µM (inactive)	37.2 µM (inactive)	83.2 µM (inactive)	16.9 µM (inactive)	> 100 µM (inactive)	> 100 µM (inactive)	61.9 µM (inactive)	–	> 100 µM (inactive)	78.3 µM (inactive)	> 100 µM (inactive)	69.7 µM (inactive)	> 100 µM (inactive)	> 100 µM (inactive)	> 100 µM (inactive)	–	–
N#Cc1c(Cl)cccc1Oc1ccc(S(=O)(=O)/N=C(\NN)Nc2ccc(Cl)cc2)cc1	19.5 µM (inactive)	19.1 µM (inactive)	26.4 µM (inactive)	32 µM (inactive)	21.5 µM (inactive)	15.6 µM (inactive)	41.9 µM (inactive)	23.3 µM (inactive)	32.5 µM (inactive)	31.9 µM (inactive)	–	31.9 µM (inactive)	24.3 µM (inactive)	–	17.7 µM (inactive)	17.7 µM (inactive)	27.4 µM (inactive)	25.5 µM (inactive)
COC(=O)/C(C#N)=C1\CCC(C(=O)OC)N1C (configuration not stated)	> 100 µM (inactive)	> 100 µM (inactive)	> 100 µM (inactive)	> 100 µM (inactive)	> 100 µM (inactive)	> 100 µM (inactive)	–	> 100 µM (inactive)	> 100 µM (inactive)	–	–	> 100 µM (inactive)	> 100 µM (inactive)	> 100 µM (inactive)	> 100 µM (inactive)	> 100 µM (inactive)	–	–
C=Cc1c(-c2ccccc2)cnc2[nH]c3ccccc3c12	2.43 µM (inactive)	> 50 µM (inactive)	> 50 µM (inactive)	> 50 µM (inactive)	> 50 µM (inactive)	> 50 µM (inactive)	> 50 µM (inactive)	3.4 µM (inactive)	> 50 µM (inactive)	> 50 µM (inactive)	> 50 µM (inactive)	> 50 µM (inactive)	> 50 µM (inactive)	> 50 µM (inactive)	–	> 50 µM (inactive)	–	–
Cc1cccc2c1CCC21OC(=O)c2c1ccc1ccccc21 (configuration not stated)	56.9 µM (inactive)	40.3 µM (inactive)	52.6 µM (inactive)	45.8 µM (inactive)	22.1 µM (inactive)	47 µM (inactive)	39.2 µM (inactive)	68.5 µM (inactive)	–	79.1 µM (inactive)	20 µM (inactive)	> 100 µM (inactive)	32.9 µM (inactive)	38.6 µM (inactive)	–	52.2 µM (inactive)	–	–
CC(=O)Oc1ccccc1C(=O)C1c2cccc(O)c2C(=O)c2c(O)cccc21	0.421 µM (active)	0.794 µM (active)	0.995 µM (active)	0.494 µM (active)	0.222 µM (active)	0.705 µM (active)	0.445 µM (active)	2.18 µM (inactive)	0.374 µM (active)	0.771 µM (active)	1.95 µM (inactive)	0.776 µM (active)	1.09 µM (active)	0.306 µM (active)	0.46 µM (active)	0.897 µM (active)	–	–
O=C1CSC(/C(=C/c2ccccc2)c2nc3ccccc3[nH]2)=N1	32.4 µM (inactive)	49.8 µM (inactive)	> 100 µM (inactive)	23.3 µM (inactive)	71.9 µM (inactive)	> 100 µM (inactive)	> 100 µM (inactive)	> 100 µM (inactive)	–	> 100 µM (inactive)	60.5 µM (inactive)	72.6 µM (inactive)	28.1 µM (inactive)	34 µM (inactive)	23.6 µM (inactive)	41.7 µM (inactive)	–	–
CCCC(O)c1cn(-c2cccc(S(=O)(=O)O)c2)nn1 (configuration not stated)	> 100 µM (inactive)	> 100 µM (inactive)	> 100 µM (inactive)	> 100 µM (inactive)	> 100 µM (inactive)	> 100 µM (inactive)	> 100 µM (inactive)	> 100 µM (inactive)	> 100 µM (inactive)	> 100 µM (inactive)	> 100 µM (inactive)	> 100 µM (inactive)	> 100 µM (inactive)	> 100 µM (inactive)	> 100 µM (inactive)	> 100 µM (inactive)	–	–
CCc1cccc(CC)c1NC(=O)C1=C(C)NC(C)=C(C(=O)Nc2c(CC)cccc2CC)C1c1ccc2c(c1)OCO2	20.4 µM (inactive)	12.6 µM (inactive)	16.6 µM (inactive)	14 µM (inactive)	8 µM (inactive)	13.4 µM (inactive)	17 µM (inactive)	19.9 µM (inactive)	22.5 µM (inactive)	19.4 µM (inactive)	14.9 µM (inactive)	25.9 µM (inactive)	17.6 µM (inactive)	5.93 µM (inactive)	22.5 µM (inactive)	18.2 µM (inactive)	–	–
[N-]=[N+]=NC(c1cn(C2CC(O)C(CO)O2)c(=O)[nH]c1=O)C(Br)Br (configuration not stated)	> 100 µM (inactive)	> 100 µM (inactive)	–	> 100 µM (inactive)	> 100 µM (inactive)	> 100 µM (inactive)	> 100 µM (inactive)	> 100 µM (inactive)	> 100 µM (inactive)	> 100 µM (inactive)	> 100 µM (inactive)	> 100 µM (inactive)	> 100 µM (inactive)	> 100 µM (inactive)	> 100 µM (inactive)	> 100 µM (inactive)	–	–
C/C(=N/Nc1ccc([N+](=O)[O-])cc1[N+](=O)[O-])C(CC(C(=O)Nc1ccccc1C)/C(C)=N\Nc1ccc([N+](=O)[O-])cc1[N+](=O)[O-])C(=O)Nc1ccccc1C (configuration not stated)	15.3 µM (inactive)	19.6 µM (inactive)	5.74 µM (inactive)	6.12 µM (inactive)	1.19 µM (inactive)	12.8 µM (inactive)	18.8 µM (inactive)	18.2 µM (inactive)	> 35 µM (inactive)	19.7 µM (inactive)	22.5 µM (inactive)	19.7 µM (inactive)	11.3 µM (inactive)	> 100 µM (inactive)	13 µM (inactive)	13.5 µM (inactive)	–	–
N#CCC(=O)N1CCCCCCC1	76.4 µM (inactive)	> 100 µM (inactive)	> 100 µM (inactive)	> 100 µM (inactive)	28.2 µM (inactive)	14.1 µM (inactive)	5.87 µM (inactive)	> 100 µM (inactive)	–	> 100 µM (inactive)	> 100 µM (inactive)	> 100 µM (inactive)	> 100 µM (inactive)	> 100 µM (inactive)	> 100 µM (inactive)	> 100 µM (inactive)	–	–
O=C(COC(=O)c1cccc2c(=O)c3ccccc3[nH]c12)Nc1ccc(Cl)cc1	28.9 µM (inactive)	54.1 µM (inactive)	95.9 µM (inactive)	24.9 µM (inactive)	11.6 µM (inactive)	> 100 µM (inactive)	85.5 µM (inactive)	8.28 µM (inactive)	–	32.8 µM (inactive)	> 100 µM (inactive)	> 100 µM (inactive)	18.8 µM (inactive)	54 µM (inactive)	26.1 µM (inactive)	13.6 µM (inactive)	–	–
CCN(CC)Cc1cc(Nc2c3ccccc3nc3c2[nH]c2ccccc23)ccc1O	1.36 µM (inactive)	1.62 µM (inactive)	1.39 µM (inactive)	1.17 µM (inactive)	2.16 µM (inactive)	1.02 µM (active)	0.912 µM (active)	2.45 µM (inactive)	1.96 µM (inactive)	0.875 µM (active)	1.9 µM (inactive)	0.352 µM (active)	1.43 µM (inactive)	–	1.35 µM (inactive)	0.345 µM (active)	–	–
COC1(C)C(=O)N2C1N(C(=O)OC(C)(C)C)CC2(C)C (configuration not stated)	> 100 µM (inactive)	> 100 µM (inactive)	> 100 µM (inactive)	> 100 µM (inactive)	> 100 µM (inactive)	36.5 µM (inactive)	17.5 µM (inactive)	> 100 µM (inactive)	44.8 µM (inactive)	> 100 µM (inactive)	> 100 µM (inactive)	> 100 µM (inactive)	> 100 µM (inactive)	> 100 µM (inactive)	> 100 µM (inactive)	96.4 µM (inactive)	–	–
NN/C(=N\S(=O)(=O)c1cc(Cl)c(Oc2ccc([N+](=O)[O-])cc2Cl)c(Cl)c1)Nc1ccc(Cl)cc1	18.8 µM (inactive)	15.5 µM (inactive)	17.9 µM (inactive)	16.2 µM (inactive)	–	15.6 µM (inactive)	28.7 µM (inactive)	21.8 µM (inactive)	31.8 µM (inactive)	23.7 µM (inactive)	21.8 µM (inactive)	17.9 µM (inactive)	16.5 µM (inactive)	10.8 µM (inactive)	14.7 µM (inactive)	15.7 µM (inactive)	18.4 µM (inactive)	19.2 µM (inactive)
COC(=O)C1=C(O)C(O)=C(C(=O)OC)CC1	> 100 µM (inactive)	> 100 µM (inactive)	> 100 µM (inactive)	> 100 µM (inactive)	> 100 µM (inactive)	> 100 µM (inactive)	> 100 µM (inactive)	> 100 µM (inactive)	> 100 µM (inactive)	> 100 µM (inactive)	> 100 µM (inactive)	37 µM (inactive)	> 100 µM (inactive)	> 100 µM (inactive)	> 100 µM (inactive)	15.1 µM (inactive)	–	–
